How the values were obtained:
Progesterone receptor = biological target: T1, Progesterone receptor (Homo sapiens, UniProt P06401); assay: Binding affinity to progesterone receptor (unknown origin) by fluorescence polarization assay
T1 sequence (P06401 whole entry): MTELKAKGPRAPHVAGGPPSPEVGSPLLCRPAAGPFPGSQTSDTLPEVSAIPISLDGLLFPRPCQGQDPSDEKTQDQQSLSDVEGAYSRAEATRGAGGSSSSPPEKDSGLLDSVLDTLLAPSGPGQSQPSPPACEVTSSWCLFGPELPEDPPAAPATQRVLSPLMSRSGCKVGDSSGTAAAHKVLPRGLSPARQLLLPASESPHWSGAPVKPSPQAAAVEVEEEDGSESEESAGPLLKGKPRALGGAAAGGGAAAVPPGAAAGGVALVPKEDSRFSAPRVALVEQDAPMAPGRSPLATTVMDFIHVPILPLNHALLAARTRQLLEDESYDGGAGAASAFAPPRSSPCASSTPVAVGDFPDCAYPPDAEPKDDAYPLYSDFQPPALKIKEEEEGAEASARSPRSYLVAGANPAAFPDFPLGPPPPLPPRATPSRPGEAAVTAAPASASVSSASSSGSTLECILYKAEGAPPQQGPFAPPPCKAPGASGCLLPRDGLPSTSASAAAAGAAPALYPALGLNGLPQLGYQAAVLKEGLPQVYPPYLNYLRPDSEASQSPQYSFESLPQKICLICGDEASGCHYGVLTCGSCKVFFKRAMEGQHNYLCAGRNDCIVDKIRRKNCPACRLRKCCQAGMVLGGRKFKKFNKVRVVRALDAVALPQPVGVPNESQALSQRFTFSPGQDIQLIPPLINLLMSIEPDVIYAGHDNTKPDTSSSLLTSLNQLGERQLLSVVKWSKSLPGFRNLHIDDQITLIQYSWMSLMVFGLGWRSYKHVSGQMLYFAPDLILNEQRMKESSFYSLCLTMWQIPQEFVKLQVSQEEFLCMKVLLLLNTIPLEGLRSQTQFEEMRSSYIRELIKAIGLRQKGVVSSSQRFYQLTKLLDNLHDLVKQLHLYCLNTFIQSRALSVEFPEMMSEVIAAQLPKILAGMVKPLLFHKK

Liver microsome [1] = assay: Metabolic stability in rat liver microsomes assessed as compound remaining
Liver = assay: Metabolic stability in mouse liver microsomes assessed as compound remaining
Glucocorticoid receptor [2] = biological target: T2, Glucocorticoid receptor (Homo sapiens, UniProt P04150); set-up: species or system Blood
T2 sequence (P04150 whole entry): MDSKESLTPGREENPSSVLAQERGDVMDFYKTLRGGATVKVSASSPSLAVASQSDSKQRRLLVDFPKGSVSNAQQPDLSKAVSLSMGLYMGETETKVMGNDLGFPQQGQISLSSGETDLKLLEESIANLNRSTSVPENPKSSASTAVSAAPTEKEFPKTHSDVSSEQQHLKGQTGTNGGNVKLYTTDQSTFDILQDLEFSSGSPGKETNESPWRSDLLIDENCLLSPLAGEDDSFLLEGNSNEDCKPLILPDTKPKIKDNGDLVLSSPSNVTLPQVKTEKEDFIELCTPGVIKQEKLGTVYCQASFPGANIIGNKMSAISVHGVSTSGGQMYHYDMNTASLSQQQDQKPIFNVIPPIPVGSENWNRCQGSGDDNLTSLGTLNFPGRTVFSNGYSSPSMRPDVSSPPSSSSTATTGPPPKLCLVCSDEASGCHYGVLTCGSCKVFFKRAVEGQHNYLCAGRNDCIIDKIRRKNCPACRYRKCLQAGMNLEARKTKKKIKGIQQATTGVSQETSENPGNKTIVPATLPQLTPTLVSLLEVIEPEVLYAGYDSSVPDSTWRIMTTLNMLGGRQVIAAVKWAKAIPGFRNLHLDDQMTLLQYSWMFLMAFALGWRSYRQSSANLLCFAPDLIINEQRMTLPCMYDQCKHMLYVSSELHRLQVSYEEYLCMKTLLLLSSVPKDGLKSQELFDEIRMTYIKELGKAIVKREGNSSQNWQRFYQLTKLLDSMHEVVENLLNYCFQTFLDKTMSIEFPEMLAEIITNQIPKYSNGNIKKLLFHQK

Liver microsome [3] = assay: Metabolic stability in human liver microsomes assessed as compound remaining
Glucocorticoid receptor [4] = biological target: T2, Glucocorticoid receptor; assay: Agonist activity at glucocorticoid receptor in human HeLa cells assessed as NP-1 transactivation by luciferase reporter gene assay; type: cell-based
Glucocorticoid receptor [5] = biological target: T2, Glucocorticoid receptor; assay: Agonist activity at glucocorticoid receptor in human A549 cells assessed as AP-1 transrepression by luciferase reporter gene assay; type: cell-based
Glucocorticoid receptor [6] = biological target: T2, Glucocorticoid receptor; assay: Agonist activity at glucocorticoid receptor in human A549 cells assessed as E-selectin transrepression by luciferase reporter gene assay; type: cell-based
Glucocorticoid receptor [7] = biological target: T2, Glucocorticoid receptor; assay: Binding affinity to glucocorticoid receptor (unknown origin) by fluorescence polarization assay
Rattus norvegicus [8] = assay: Antiinflammatory activity in Lewis rat assessed as inhibition of LPS-induced TNF-alpha production at 30 mg/kg, po administered 90 mins prior to LPS challenge measured after 90 mins relative to vehicle-treated control; type: functional
[9] = Oral bioavailability in rat at 10 mg/kg; type: ADME, organism-based; settings: in vivo
[10] = Clearance in rat at 1 mg/kg, iv; type: ADME, organism-based; set-up: dose 1 mg/kg, route intravenous; settings: in vivo
[11] = Clearance in iv dosed dog; type: ADME, organism-based, Canis lupus familiaris; settings: in vivo
[12] = Oral bioavailability in dog at 5 mg/kg; type: ADME, organism-based, Canis lupus familiaris; settings: in vivo
[13] = Half life in rat liver microsomes; type: ADME
[14] = Half life in dog liver microsomes; type: ADME, Canis lupus familiaris
[15] = Half life in human liver microsomes; settings: liver microsomes
[16] = Drug uptake in Lewis rat serum at 10 mg/kg, po after 3 hrs; type: ADME, organism-based; set-up: dose 10 mg/kg, route oral; settings: read-out: Drug uptake
Rattus norvegicus [17] = species: Rattus norvegicus; assay: animal or person; type: functional; settings: Lewis, route oral

Ki (Progesterone receptor) | Stability (Liver microsome [1]) | Stability (Liver) | EC50 (Glucocorticoid receptor [2]) | Stability (Liver microsome [3]) | EC50 (Glucocorticoid receptor [4]) | EC50 (Glucocorticoid receptor [5]) | EC50 (Glucocorticoid receptor [6]) | Ki (Glucocorticoid receptor [7]) | SMILES | other results
623 nM | – | – | – | – | – | – | – | – | COc1ccc(CNC(=O)NC(=O)C(C)(C)[C@@H]2c3ccc(-c4ccc(C(=O)N5CCOCC5)cc4)nc3Oc3c(F)cccc32)cc1 | –
2320 nM | 49% | 76% | 207 nM | 78% | 49.3 nM | 8.7 nM | 5 nM | 1.9 nM | CC(C)(C(=O)NC(N)=O)[C@H]1c2ccccc2Oc2nc(-c3ccc(C(=O)N4CCCC4)cc3)ccc21 | –
778 nM | – | – | – | – | – | – | – | – | C[C@@H]1C[C@H]2[C@@H]3CCC4=CC(=O)C=C[C@]4(C)[C@@]3(F)[C@@H](O)C[C@]2(C)[C@@]1(O)C(=O)CO [DEXAMETHASONE] | –
5340 nM | – | – | 2380 nM | – | 586 nM | 17.5 nM | 32.8 nM | 8.7 nM | CC(C)(C(=O)NC(=O)C1CCC1)[C@@H]1c2ccc(-c3ccc(C(=O)N4CCOCC4)cc3)nc2Oc2c(F)cccc21 | –
– | – | – | – | – | – | – | – | – | C[C@]12C=CC(=O)C=C1CC[C@@H]1[C@@H]2[C@@H](O)C[C@@]2(C)[C@H]1CC[C@]2(O)C(=O)CO [PREDNISOLONE] | inhibition in vivo at 30 mg/kg (Rattus norvegicus [8]): 75%
1830 nM | – | – | 379 nM | – | 98.5 nM | 17.7 nM | 6.89 nM | 1.6 nM | CCN(C)C(=O)c1ccc(-c2ccc3c(n2)Oc2ccccc2[C@@H]3C(C)(C)C(=O)Nc2nncs2)cc1 | –
2910 nM | – | – | – | – | – | – | – | – | CCNC(=O)NC(=O)C(C)(C)[C@@H]1c2ccc(-c3ccc(C(=O)N4CCOCC4)cc3)nc2Oc2c(F)cccc21 | –
604 nM | 71% | 73% | – | 89% | 5.3 nM | 1.6 nM | 1.4 nM | 0.7 nM | CC(C)(C(=O)NC(N)=O)[C@@H]1c2ccc(-c3ccc(C(=O)N4CCCC4)cc3)nc2Oc2c(F)cccc21 | –
33300 nM | 67% | 77% | – | 56% | 1.3 nM | 0.8 nM | 0.6 nM | 1.2 nM | CC(C)(C(=O)NC(N)=O)[C@@H]1c2ccc(-c3ccc(C(=O)N4CC[C@H](F)C4)cc3)nc2Oc2c(F)cccc21 | –
313 nM | 58% | 86% | 355 nM | 97% | 59.2 nM | 6.7 nM | 3.8 nM | 0.7 nM | CC(C)Oc1ccc(-c2ccc3c(n2)Oc2c(F)cccc2[C@@H]3C(C)(C)C(=O)NC(N)=O)cn1 | bioavailability [9]: 25.7%; clearance [10]: 20.8 mL/min/kg; clearance [11]: 9 mL/min/kg; bioavailability [12]: 82%; half-life [13]: 0.233 h; half-life [14]: 1.63 h; half-life [15]: 3.18 h; concentration at 3 h [16]: 500 nM; inhibition in vivo at 10 mg/kg (Rattus norvegicus [17]): 69%
5340 nM | – | – | 2380 nM | – | 676 nM | 17.5 nM | 32.8 nM | 8.7 nM | CC(C)(C(=O)NC(=O)NC1CCC1)[C@@H]1c2ccc(-c3ccc(C(=O)N4CCOCC4)cc3)nc2Oc2c(F)cccc21 | –
282 nM | 86% | 75% | 3050 nM | 95% | 11 nM | 6.2 nM | 4.8 nM | 1.5 nM | CC(C)(C(=O)NC(N)=O)[C@H]1c2ccccc2Oc2nc(-c3ccc(C(=O)N4CCOCC4)cc3)ccc21 | –
268 nM | – | – | 88 nM | – | 14 nM | 5 nM | 3.2 nM | 5.9 nM | CC(=O)NC(=O)C(C)(C)[C@@H]1c2ccc(-c3ccc(C(=O)N4CCOCC4)cc3)nc2Oc2c(F)cccc21 | –
12400 nM | – | – | 1890 nM | – | 1050 nM | 213 nM | 109 nM | 69.4 nM | CC(=O)NC(=O)C(C)(C)[C@@H]1c2ccc(-c3ccc(C(=O)N(C)C)cc3)nc2Oc2c(F)cccc21 | –
22.7 nM | – | – | – | – | – | – | – | – | CC(C)(C(=O)NC(N)=O)[C@@H]1c2ccc(-c3ccc(C(=O)N4CCOCC4)nc3)nc2Oc2c(F)cccc21 | –
1360 nM | 86% | 86% | 211 nM | 73% | 113 nM | 16.5 nM | 12.2 nM | 2 nM | CC(C)(C(=O)NC(N)=O)[C@@H]1c2ccc(-c3ccc(C(=O)N4CCCC4)nc3)nc2Oc2c(F)cccc21 | –
5040 nM | – | – | 389 nM | – | 1040 nM | 23.7 nM | 74.8 nM | – | CC(C)C(=O)NC(=O)C(C)(C)[C@@H]1c2ccc(-c3ccc(C(=O)N4CCOCC4)cc3)nc2Oc2c(F)cccc21 | –
106 nM | 83% | 76% | 199 nM | 73% | 107 nM | 21.9 nM | 14.7 nM | 4 nM | CC(C)(O)c1ccc(-c2ccc3c(n2)Oc2c(F)cccc2[C@@H]3C(C)(C)C(=O)NC(N)=O)cn1 | –
2040 nM | – | – | 418 nM | – | 177 nM | 18.4 nM | 17.6 nM | 8.5 nM | CC(C)(C(=O)NC(=O)C1CC1)[C@@H]1c2ccc(-c3ccc(C(=O)N4CCOCC4)cc3)nc2Oc2c(F)cccc21 | –
10600 nM | – | – | – | – | 8910 nM | 907 nM | 203 nM | 110 nM | CN(C)C(=O)NC(=O)C(C)(C)[C@@H]1c2ccc(-c3ccc(C(=O)N4CCOCC4)cc3)nc2Oc2c(F)cccc21 | –
1530 nM | – | – | 830 nM | – | 242 nM | 33.2 nM | 33.8 nM | 1.9 nM | CN(C)C(=O)c1ccc(-c2ccc3c(n2)Oc2ccccc2[C@@H]3C(C)(C)C(=O)Nc2nncs2)cc1 | –
12400 nM | – | – | 218 nM | – | 27 nM | 5.1 nM | 3.6 nM | 2.5 nM | CC(=O)NC(=O)C(C)(C)[C@@H]1c2ccc(-c3ccc(C(=O)N4CCCC4)cc3)nc2Oc2c(F)cccc21 | –
1170 nM | – | – | 1040 nM | – | 302 nM | 10.7 nM | 16.1 nM | 6.9 nM | CNC(=O)NC(=O)C(C)(C)[C@@H]1c2ccc(-c3ccc(C(=O)N4CCOCC4)cc3)nc2Oc2c(F)cccc21 | –
